From patent US20250197864A1, “LNCRNA TRANSCRIPTS IN MELANOMAGENESIS” (The Regents of the University of California, priority 2021, published 2025)

Columns and labels:
[1] = tested on: gene expression in D04 melanoma cells; assay: DAVID Functional Annotation Clustering (GO term) analysis of DE genes; design: species or system human; conditions: RNA-Seq
Protocol: Differential expression (DE) analysis was done using DESeq2. Differentially expressed genes were defined by more than 1.5-fold changes (log 2 >0.58 or <−0.58) in expression with FDR<0.05. GO term analysis was done using DAVID Functional Annotation Clustering analysis.
To examine the biomolecular changes upon TRASH-inhibition in melanoma, D04 cells were treated with TRASH-ASOs (SEQ ID NO:15) and Control-ASOs and RNA was extracted and used for RNA-Seq. […] These GO terms consisted of genes encoding growth factors, tyrosine kinases, G protein coupled receptor subunits, and collagen subunits. Scatter plot diagram showing differential gene expression after TRASH-ASO treatment compared to Control-ASO treatment. (cut-off for significance was adjusted p-value <0.05). Data was obtained from RNA-Seq of D04 melanoma cells, treatment period was three days. (FIG. 5c)

[2] = tested on: kinases in D04, D04RM and MM415 melanoma cell extracts; assay: High Throughput Kinase Activity Mapping (HT-KAM); assay type: cell-based, human; conditions: ASO 50 nM, one day, vs Control-ASO
Protocol: We mapped and compared the phospho-catalytic profile of kinases of D04, MM415 and D04RM cells that were incubated with TRASH targeting ASOs (SEQ TD NO: 15), ASOs targeting the oncogenic lncRNA Malat1 and non-targeting control ASOs. Therefore, ye used the high-throughput system HTKAM to measure the enzymatic activity of kinases using biological peptide targets as phospho-sensors to reveal kinase dependencies in cell lines.
Kinases cover a wide range of apoptosis regulating functions in cancer. Given the findings that TRASH-ASO treatment (SEQ ID NO:15) strongly affects the transcriptional regulation of genes that are related to kinase signaling pathways, we aimed to perform functional profiling of kinase activity shifts triggered by TRASH-inhibition. To do so, we used a kinase activity screening platform39 (named High Throughput Kinase Activity Mapping—HT-KAM) that enables the simultaneous identification of kinase enzymes functional state in cancer cells across a broad range of kinase families (see Methods for details). We generated protein extracts of two versions of the D04 (D04—treatment naive; D04RM—trametinib resistant) and the MM415 melanoma cell-lines, treated with Control-ASOs or TRASH-ASOs. […]

D04 cells [3] = assay: Flow cytometry apoptosis (Annexin V and propidium iodide); assay type: cell-based, human; conditions: 50 nM, 24 h, vs Control-ASO
Protocol: To confirm activation of apoptosis and cell death in response to TRASH-ASO treatment (SEQ ID NO: 15) D04 cells were either treated with control-ASO or TRASH-ASO (50 nM) for 24 h. The cells were stained with Alexa 488 Annexin V and propidium iodide (PI) (Invitrogen™ Dead Cell Apoptosis Kits with Annexin V for Flow Cytometry Catalog number: V13241). […] (FIG. 5e)

D04 cells [4] = assay: Repetition of drug treatment in surviving D04 cells (drug resistance test); assay type: cell-based, human; conditions: TRASH-ASO 50 nM or MEKi 15 nM (or 20 nM), recovery in drug free media, five days (120 hrs)
Protocol: Dependent on cell doubling time, 0.7-2×10^^3 cells were seeded in 96 well plates. 1 day after seeding cells were incubated in media with oligonucleotide concentration and/or MEKi and transfection reagent. 3 (synergy experiments) or 5 (solely ASO) days after transfection Total luminescence was measured on the SynergyHT plate reader (BioTek) using Gen5 software.
Rescuing cells that survived initial TRASH-ASO (SEQ ID NO:15) and MEKi (trametinib) treatment and providing the rescued cells with a phase of regrowth in drug free media, was followed by repetition of the preceding drug treatment. […] Incubation time was 120 hrs, n=3. (FIG. 5d).

## GACTGGAGATAATTAA (gapmer, pattern not given here) [SEQ ID NO: 15, GapmeR ASO targeting AC004540.4 (TRASH), exon region of both isoforms; used for in vitro experiments]
[1]
  top enriched GO term clusters associated with the down-regulated genes: “ECM-receptor interaction” and “PI3K-AKT signaling pathway”
  top enriched GO term clusters associated with the up-regulated genes: “protein tyrosine kinase activity” (GO: 0004713) and “Ras guanyl-nucleotide exchange factor activity” (G00005088)
[2]; listed as SEQ TD NO: 15
  activity of anti-apoptotic kinases (AKT1, CDK1, LYN, YES1, CHEK1, PKCA, STK11, PKCa, PIM1) by HT-KAM: significantly decreased activity levels
[2]; listed as TRASH-ASO
  activity of anti-apoptotic kinases (AKT1, CDK1, LYN, YES1, CHEK1, PKCA, STK11, PKCa, PIM1) by HT-KAM: significantly less active
D04 cells [3]
  fractions of apoptotic and dead cells (Annexin V / PI): Increased fractions of apoptotic and dead cells
D04 cells [4]; n=3, listed as SEQ ID NO:15
  cell-growth reduction on repetition of the preceding drug treatment in surviving cells: increased vulnerability
D04 cells [4]; n=3, listed as TRASH-ASO
  cell-growth reduction on repetition of the preceding drug treatment in surviving cells: significantly increased (p=0.004) cell-growth reduction
